For the test, the target named is hNPY1R (Homo sapiens (Human), UniProt P25929). The experiment in a line: NPY1R binding assay (SK-N-MC membrane, [125I]-Peptide YY competition).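 Further: bound radioligand separated by filtration over GF/C filter plates and counted, Ki obtained by non-linear regression.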 The note with it: crude SK-N-MC membranes endogenously expressing NPY1R; [125I]-Peptide YY (human) 0.05 nM; 120 min at room temperature; read-out: hNPY1R binding Ki.

Molecules are shown by their SMILES.

The Ki is the dissociation constant of the complex between target and ligand, obtained from inhibition or displacement.

Sequence of hNPY1R (P25929 whole entry): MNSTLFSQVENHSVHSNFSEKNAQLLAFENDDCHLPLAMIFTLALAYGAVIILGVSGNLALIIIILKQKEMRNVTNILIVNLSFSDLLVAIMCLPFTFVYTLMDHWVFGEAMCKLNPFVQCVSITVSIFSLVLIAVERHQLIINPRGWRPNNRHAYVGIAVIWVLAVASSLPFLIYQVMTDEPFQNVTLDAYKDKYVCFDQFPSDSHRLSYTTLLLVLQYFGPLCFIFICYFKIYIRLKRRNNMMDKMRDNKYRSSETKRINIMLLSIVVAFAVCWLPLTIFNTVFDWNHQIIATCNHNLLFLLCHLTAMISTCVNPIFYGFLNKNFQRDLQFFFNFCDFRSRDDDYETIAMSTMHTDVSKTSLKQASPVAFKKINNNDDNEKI

As to `CCC(=O)NCCNC(=O)/N=C(/N)NCCC[C@@H](NC(=O)[C@H](c1ccc(OCCCN)cc1)N1Cc2ccccc2C1)C(=O)NCc1ccc(O)cc1` [64A, (R)-2-((S)-2-(4-(3-aminopropoxy)phenyl)-2-(isoindolin-2-yl)acetamido)-N-(4-hydroxybenzyl)-5-((Z)-2-((2-propionamidoethyl)carbamoyl)guanidino)pentanamide], the Ki was less than 10 nM.
For `CCC(=O)NCCNC(=O)/N=C(/N)NCCC[C@@H](NC(=O)[C@@H](c1ccc(OCCCN)cc1)N1Cc2ccccc2C1)C(=O)NCc1ccc(O)cc1` [64B] the value was 10 to 100 nM.
Take `CCNC(=O)/N=C(/N)NCCC[C@@H](NC(=O)[C@H](c1ccccc1)N1Cc2ccc(NCCCN)cc2C1)C(=O)NCc1c(F)cc(O)cc1F` [65A, (R)-2-((S)-2-(5-((3-aminopropyl)amino)isoindolin-2-yl)-2-phenylacetamido)-N-(2,6-difluoro-4-hydroxybenzyl)-5-((Z)-2-(ethylcarbamoyl)guanidino)pentanamide]: the Ki was less than 10 nM.
`CCNC(=O)/N=C(/N)NCCC[C@@H](NC(=O)[C@H](c1cccc(NCCCN)c1)N1Cc2ccccc2C1)C(=O)NCc1c(F)cc(O)cc1F` [66A, (R)-2-((S)-2-(3-((3-aminopropyl)amino)phenyl)-2-(isoindolin-2-yl)acetamido)-N-(2,6-difluoro-4-hydroxybenzyl)-5-((Z)-2-(ethylcarbamoyl)guanidino)pentanamide]: the Ki was less than 10 nM.
Take `CCNC(=O)/N=C(/N)NCCC[C@@H](NC(=O)[C@@H](c1cccc(NCCCN)c1)N1Cc2ccccc2C1)C(=O)NCc1c(F)cc(O)cc1F` [66B, (R)-2-((R)-2-(3-((3-aminopropyl)amino)phenyl)-2-(isoindolin-2-yl)acetamido)-N-(2,6-difluoro-4-hydroxybenzyl)-5-((Z)-2-(ethylcarbamoyl)guanidino)pentanamide]: the Ki was less than 10 nM.
The result for `N=C(N)NCCC[C@@H](NC(=O)[C@H](c1ccccc1)N1Cc2ccccc2C1=O)C(=O)NCc1ccc(O)cc1` [71A, (R)-5-guanidino-N-(4-hydroxybenzyl)-2-((S)-2-(1-oxoisoindolin-2-yl)-2-phenylacetamido)pentanamide] reads more than 1000 nM; that for `N=C(N)NCCC[C@@H](NC(=O)[C@@H](c1ccccc1)N1Cc2ccccc2C1=O)C(=O)NCc1ccc(O)cc1` [71B, (R)-5-guanidino-N-(4-hydroxybenzyl)-2-((R)-2-(1-oxoisoindolin-2-yl)-2-phenylacetamido)pentanamide], more than 1000 nM; that for `CCCC1CCN([C@@H](C(=O)N[C@H](CCCNC(=N)N)C(=O)NCc2ccc(O)cc2)c2ccccc2)CC1` [78A, (R)-5-guanidino-N-(4-hydroxybenzyl)-2-((R)-2-phenyl-2-(4-propylpiperidin-1-yl)acetamido)pentanamide], more than 1000 nM.
For `CC1(C)C2CN([C@H](C(=O)N[C@H](CCCNC(=N)N)C(=O)NCc3ccc(O)cc3)c3ccccc3)CC21` (stereo partly drawn) [88A, (2R)-2-((2S)-2-(6,6-dimethyl-3-azabicyclo[3.1.0]hexan-3-yl)-2-phenylacetamido)-5-guanidino-N-(4-hydroxybenzyl)pentanamide] the value was 100 to 1000 nM; for `CC1(C)C2CN([C@@H](C(=O)N[C@H](CCCNC(=N)N)C(=O)NCc3ccc(O)cc3)c3ccccc3)CC21` (stereo partly drawn) [88B, (2R)-2-((2R)-2-(6,6-dimethyl-3-azabicyclo[3.1.0]hexan-3-yl)-2-phenylacetamido)-5-guanidino-N-(4-hydroxybenzyl)pentanamide], more than 1000 nM.
The result for `CCC(=O)NCCNC(=O)/N=C(/N)NCCC[C@@H](NC(=O)[C@H](c1cccc(NCCCNc2c(NCCCCCCNC(=O)CN3CCN(CC(=O)O)CCN(CC(=O)O)CCN(CC(=O)O)CC3)c(=O)c2=O)c1)N1Cc2ccccc2C1)C(=O)NCc1ccc(O)cc1` [compound 2, 2,2′,2″-(10-(2-((6-((2-((3-((3-((1S,4R,Z)-9-amino-4-((4-hydroxybenzyl)carbamoyl)-1-(isoindolin-2-yl)-2,11,16-trioxo-3,8,10,12,15-pentaazaoctadec-9-en-1-yl)phenyl)amino)propyl)amino)-3,4-dioxocyclobut-1-en-1-yl)amino)hexyl)amino)-2-oxoethyl)-1,4,7,10-tetraazacyclododecane-1,4,7-triyl)triacetic acid-formic acid (1/1)] reads less than 10 nM; that for `CCC(=O)NCCNC(=O)/N=C(/N)NCCC[C@@H](NC(=O)[C@H](c1ccc(OCCCN2CCN(C(=O)CCNC(=O)CN3CCN(CC(=O)O)CCN(CC(=O)O)CCN(CC(=O)O)CC3)CC2)cc1)N1Cc2ccccc2C1)C(=O)NCc1c(F)cc(O)cc1F` [compound 4, 2,2′,2″-(10-(2-((3-(4-(3-(4-((1S,4R,Z)-9-amino-4-((2,6-difluoro-4-hydroxybenzyl)carbamoyl)-1-(isoindolin-2-yl)-2,11,16-trioxo-3,8,10,12,15-pentaazaoctadec-9-en-1-yl)phenoxy)propyl)piperazin-1-yl)-3-oxopropyl)amino)-2-oxoethyl)-1,4,7,10-tetraazacyclododecane-1,4,7-triyl)triacetic acid-2,2,2-trifluoroacetic acid (1/1)], less than 10 nM; that for `CCC(=O)NCCNC(=O)/N=C(/N)NCCC[C@@H](NC(=O)[C@H](c1ccc(OCCCNC2CCN(C(=O)CCCCCNC(=O)CN3CCN(CC(=O)O)CCN(CC(=O)O)CCN(CC(=O)O)CC3)CC2)cc1)N1Cc2ccccc2C1)C(=O)NCc1c(F)cc(O)cc1F` [compound 5, 2,2′,2″-(10-(2-((6-(4-((3-(4-((1S,4R,Z)-9-amino-4-((2,6-difluoro-4-hydroxybenzyl)carbamoyl)-1-(isoindolin-2-yl)-2,11,16-trioxo-3,8,10,12,15-pentaazaoctadec-9-en-1-yl)phenoxy)propyl)amino)piperidin-1-yl)-6-oxohexyl)amino)-2-oxoethyl)-1,4,7,10-tetraazacyclododecane-1,4,7-triyl)triacetic acid-2,2,2-trifluoroacetic acid (1/1)], less than 10 nM.
With `CCC(=O)NCCNC(=O)/N=C(/N)NCCC[C@@H](NC(=O)[C@H](c1ccc(OCCCNC(=O)C[C@H](O)C[C@H](O)CCNC(=O)CN2CCN(CC(=O)O)CCN(CC(=O)O)CCN(CC(=O)O)CC2)cc1)N1Cc2ccccc2C1)C(=O)NCc1c(F)cc(O)cc1F` [compound 6, 2,2′,2″-(10-(2-(((3R,5R)-7-((3-(4-((1S,4R,Z)-9-amino-4-((2,6-difluoro-4-hydroxybenzyl)carbamoyl)-1-(isoindolin-2-yl)-2,11,16-trioxo-3,8,10,12,15-pentaazaoctadec-9-en-1-yl)phenoxy)propyl)amino)-3,5-dihydroxy-7-oxoheptyl)amino)-2-oxoethyl)-1,4,7,10-tetraazacyclododecane-1,4,7-triyl)triacetic acid-2,2,2-trifluoroacetic acid (1/1)], the Ki was less than 10 nM.
As to `CCC(=O)NCCNC(=O)/N=C(/N)NCCC[C@@H](NC(=O)[C@H](c1ccc(OCCCNC(=O)CCC(=O)NCCNC(=O)CN2CCN(CC(=O)O)CCN(CC(=O)O)CCN(CC(=O)O)CC2)cc1)N1Cc2ccccc2C1)C(=O)NCc1c(F)cc(O)cc1F` [compound 7, 2,2′,2″-(10-(2-((2-(4-((3-(4-((1S,4R,Z)-9-amino-4-((2,6-difluoro-4-hydroxybenzyl)carbamoyl)-1-(isoindolin-2-yl)-2,11,16-trioxo-3,8,10,12,15-pentaazaoctadec-9-en-1-yl)phenoxy)propyl)amino)-4-oxobutanamido)ethyl)amino)-2-oxoethyl)-1,4,7,10-tetraazacyclododecane-1,4,7-triyl)triacetic acid-2,2,2-trifluoroacetic acid (1/1)], the Ki is less than 10 nM.

The record behind these values is patent publication US20250213735A1, “NEUROPEPTIDE Y1 RECEPTOR (NPY1R) TARGETED THERAPEUTICS AND USES THEREOF” (Radionetics Oncology, Inc., priority 2023, published 2025).
